Laboratory results: PubChem BioAssay (NCI)
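96-well plates; 48 h exposure; 5 concentrations. Endpoints by linear interpolation between flanking doses. Not reached: highest tested concentration assigned. Abbreviation: GI50, concentration required for 50% inhibition of growth. TGI: concentration producing complete growth inhibition.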

Legend:
Assay in all cases: NCI-60 cell line screen, 48 h
OVCAR-5 ovarian = system: OVCAR-5 ovarian
ACHN renal = system: ACHN renal
OVCAR-3 ovarian = system: OVCAR-3 ovarian
HCT-15 colon = system: HCT-15 colon
HS 578T breast = system: HS 578T breast
HT29 colon = system: HT29 colon
HL-60(TB) leukemia = system: HL-60(TB) leukemia
SF-295 CNS = system: SF-295 CNS
SK-OV-3 ovarian = system: SK-OV-3 ovarian
HOP-92 NSCLC = system: HOP-92 NSCLC

C=C1CCC2C3(C)COC(C)(C)OC3CCC2(C)C1C/C=C1/C(=O)OCC1OC(C)=O (stereo not given)
GI50 (OVCAR-5 ovarian): 3.78 µM | TGI (OVCAR-5 ovarian): 11.2 µM | GI50 (ACHN renal): 3.12 µM | TGI (ACHN renal): 10.5 µM | GI50 (OVCAR-3 ovarian): 2.47 µM | TGI (OVCAR-3 ovarian): 6.07 µM | GI50 (HCT-15 colon): 1.61 µM | TGI (HCT-15 colon): 4.19 µM | GI50 (HS 578T breast): 2.75 µM | TGI (HS 578T breast): 9.59 µM | GI50 (HT29 colon): 1.89 µM | TGI (HT29 colon): 4.85 µM | GI50 (HL-60(TB) leukemia): 2.55 µM | TGI (HL-60(TB) leukemia): 7.14 µM | GI50 (SF-295 CNS): 11.5 µM | TGI (SF-295 CNS): 25.9 µM | GI50 (SK-OV-3 ovarian): 12.5 µM | TGI (SK-OV-3 ovarian): 25.7 µM | GI50 (HOP-92 NSCLC): 10.8 µM | TGI (HOP-92 NSCLC): 24.2 µM

C=CCc1c(Cl)nc(Cl)nc1Cl
TGI (OVCAR-5 ovarian): 2.02 µM | TGI (ACHN renal): 1.2 µM | TGI (OVCAR-3 ovarian): 0.311 µM | TGI (HCT-15 colon): 0.938 µM | TGI (HS 578T breast): 4.14 µM | TGI (HT29 colon): 0.805 µM | TGI (HL-60(TB) leukemia): > 100 µM | TGI (SF-295 CNS): 3.94 µM | TGI (SK-OV-3 ovarian): 9.12 µM | TGI (HOP-92 NSCLC): 0.749 µM

Nc1nc2ccc(-c3nc4ccc5[nH]ncc5c4c4c3CCC4)cc2s1
GI50 (OVCAR-5 ovarian): 2.64 µM | TGI (OVCAR-5 ovarian): 11.9 µM | GI50 (ACHN renal): 0.321 µM | TGI (ACHN renal): 6.58 µM | GI50 (OVCAR-3 ovarian): 0.187 µM | TGI (OVCAR-3 ovarian): 10.8 µM | GI50 (HCT-15 colon): 0.193 µM | TGI (HCT-15 colon): 7.66 µM | GI50 (HS 578T breast): 0.189 µM | TGI (HS 578T breast): 3.13 µM | GI50 (HT29 colon): 0.191 µM | TGI (HT29 colon): 19.8 µM | GI50 (HL-60(TB) leukemia): 0.168 µM | TGI (HL-60(TB) leukemia): 7.93 µM | GI50 (SF-295 CNS): 0.234 µM | TGI (SF-295 CNS): 7.95 µM | GI50 (SK-OV-3 ovarian): 0.473 µM | TGI (SK-OV-3 ovarian): 2.52 µM | GI50 (HOP-92 NSCLC): 0.66 µM | TGI (HOP-92 NSCLC): 6.87 µM

CC(=O)Nc1ccc(-c2cc(C(=O)O)c3cc4ccccc4cc3n2)cc1
TGI (OVCAR-5 ovarian): > 100 µM | TGI (ACHN renal): > 100 µM | TGI (OVCAR-3 ovarian): > 100 µM | TGI (HCT-15 colon): > 100 µM | TGI (HS 578T breast): > 100 µM | TGI (HT29 colon): > 100 µM | TGI (HL-60(TB) leukemia): > 100 µM | TGI (SF-295 CNS): > 100 µM | TGI (SK-OV-3 ovarian): > 100 µM | TGI (HOP-92 NSCLC): > 100 µM

N=C1C(O)C2(I)c3ccccc3N3C(=N)C(O)C4c5ccccc5N1C4C32 (stereo not given)
TGI (OVCAR-5 ovarian): > 100 µM | TGI (ACHN renal): > 100 µM | TGI (OVCAR-3 ovarian): > 100 µM | TGI (HCT-15 colon): > 100 µM | TGI (HS 578T breast): > 100 µM | TGI (HT29 colon): > 100 µM | TGI (HL-60(TB) leukemia): 79.4 µM | TGI (SF-295 CNS): > 100 µM | TGI (SK-OV-3 ovarian): > 100 µM | TGI (HOP-92 NSCLC): > 100 µM

Cc1ccc2cnc(N)c(C#Cc3cc(C(=O)Nc4ccc(CN5CCN(C)CC5)c(C(F)(F)F)c4)cnc3C)c2c1
GI50 (OVCAR-5 ovarian): 0.688 µM | TGI (OVCAR-5 ovarian): 1.49 µM | GI50 (ACHN renal): 0.449 µM | TGI (ACHN renal): 1.06 µM | GI50 (OVCAR-3 ovarian): 0.67 µM | TGI (OVCAR-3 ovarian): 2.66 µM | GI50 (HCT-15 colon): 0.385 µM | TGI (HCT-15 colon): 1.17 µM | GI50 (HS 578T breast): 0.901 µM | TGI (HS 578T breast): 2.76 µM | GI50 (HT29 colon): 0.139 µM | TGI (HT29 colon): 0.776 µM | GI50 (HL-60(TB) leukemia): 1.73 µM | TGI (HL-60(TB) leukemia): 6.58 µM | GI50 (SF-295 CNS): 0.771 µM | TGI (SF-295 CNS): 1.75 µM | GI50 (SK-OV-3 ovarian): 1.61 µM | TGI (SK-OV-3 ovarian): 4.19 µM | GI50 (HOP-92 NSCLC): 0.217 µM | TGI (HOP-92 NSCLC): 1.64 µM

c1ccc(-c2nc(-c3ccccn3)nc(-c3ccccn3)n2)nc1
GI50 (OVCAR-5 ovarian): > 100 µM | TGI (OVCAR-5 ovarian): > 100 µM | GI50 (ACHN renal): 22.1 µM | TGI (ACHN renal): > 100 µM | GI50 (OVCAR-3 ovarian): 25.4 µM | TGI (OVCAR-3 ovarian): > 100 µM | GI50 (HCT-15 colon): 5.71 µM | TGI (HCT-15 colon): > 100 µM | GI50 (HS 578T breast): 53.6 µM | TGI (HS 578T breast): > 100 µM | GI50 (HT29 colon): 6.73 µM | TGI (HT29 colon): > 100 µM | GI50 (HL-60(TB) leukemia): 38.2 µM | TGI (HL-60(TB) leukemia): > 100 µM | GI50 (SF-295 CNS): 21.2 µM | TGI (SF-295 CNS): > 100 µM | GI50 (SK-OV-3 ovarian): 54.2 µM | TGI (SK-OV-3 ovarian): > 100 µM | GI50 (HOP-92 NSCLC): 8.99 µM | TGI (HOP-92 NSCLC): 92 µM

CC(C)=CCN1c2ccccc2NC(=O)CC1C (stereo not given)
TGI (OVCAR-5 ovarian): > 100 µM | TGI (ACHN renal): > 100 µM | TGI (OVCAR-3 ovarian): > 100 µM | TGI (HCT-15 colon): > 100 µM | TGI (HS 578T breast): > 100 µM | TGI (HT29 colon): > 100 µM | TGI (HL-60(TB) leukemia): > 100 µM | TGI (SF-295 CNS): > 100 µM | TGI (SK-OV-3 ovarian): > 100 µM | TGI (HOP-92 NSCLC): > 100 µM

O=S(=O)(Nc1ccc(Br)cc1)c1ccc(-c2cnc(C3CC3)o2)cc1
GI50 (OVCAR-5 ovarian): 4.55 µM | TGI (OVCAR-5 ovarian): 17.1 µM | GI50 (ACHN renal): 4.9 µM | TGI (ACHN renal): 17.5 µM | GI50 (OVCAR-3 ovarian): 1.05 µM | TGI (OVCAR-3 ovarian): 3.96 µM | GI50 (HCT-15 colon): 0.644 µM | TGI (HCT-15 colon): 14.2 µM | GI50 (HS 578T breast): 1.38 µM | TGI (HS 578T breast): 6.17 µM | GI50 (HT29 colon): 0.715 µM | TGI (HT29 colon): 15.9 µM | GI50 (HL-60(TB) leukemia): 1.47 µM | TGI (HL-60(TB) leukemia): 6.41 µM | GI50 (SF-295 CNS): 1.13 µM | TGI (SF-295 CNS): 11.8 µM | GI50 (SK-OV-3 ovarian): 2.49 µM | TGI (SK-OV-3 ovarian): 14.3 µM | GI50 (HOP-92 NSCLC): 3.39 µM | TGI (HOP-92 NSCLC): 18.6 µM
